One series has as its system EV-A71 strain BrCr. Nature of the series: CPE inhibition assay for anti-EV-A71 in Vero cells, BrCr strain. The format is cell-based, Enterovirus 71 (EV-A71). As to the method:
(§1) An in-vitro antiviral assay was established using the Africa monkey kidney cell line Vero which was infected with different EV-A71 clinical isolates (BrCr, H, Shenzhen98 and Jiangsu52). A total of 24 synthetic compounds were initially screened in such an assay to determine their inhibitory effect on virus replication at 3-fold diluted concentrations serial (400~0.18 μM). The 50% effective concentration (EC50) of each compound was calculated according to its inhibitory rate values with the Reed–Muench method. The 50% cytotoxic concentration (CC50) was defined as the concentration that inhibited 50% cellular growth in comparison with the controls. The selectivity index (SI) was calculated as CC50/EC50. […] Generally, the EV-A71 H strain was less sensitive to most of the active compounds as compared to the other virus strains.
(§2) EV-A71 strain ShenZhen98 (SZ98) was isolated from the throat swab sample of an HFMD case which occurred in 1998 in China. This was kindly provided by Dr. Qi Jin, Institute of Pathogen Biology, Chinese Academy of Medical Science and Peking Union Medical School, Beijing, China. EV-A71 strains BrCr (VR-1775) and H (VR-1432) were purchased from the ATCC. The EV-A71 strain JS52 was a kind gift from Dr. Xiangzhong Ye, Beijing Wantai Biological Pharmacy Enterprise Co., Ltd. EV-A71 were all passaged in Vero cells.
(§3) The anti-EV-A71 activity of compounds was determined by the CPE inhibition method. Briefly, cells (3 × 10^4 cells/well) were plated into 96-well culture plates for incubation for 24 h. The medium was then removed and cells were infected with EV-A71 with 100TCID50 (50% tissue culture infective doses) in serum-free medium for 1 h at 37 °C. Then, the unbound viruses were removed and various concentrations of compounds were supplemented and incubated for another 48 h. The EC50 was determined by the Reed–Muench method. The selectivity index was calculated as the ratio of CC50/EC50 [15].

A short description of series [1]: Cytotoxicity assay (CPE) on Vero cells. It is filed as cell-based. Particulars: African green monkey; Vero cells, 3 days of incubation, Reed–Muench; read-out: CC50. As to the method: as §1
African green monkey kidney (Vero) cells were purchased from the American Type Culture Collection (ATCC) and were cultured in minimum essential medium (MEM) supplemented with 10% fetal bovine serum (FBS) (GIBCO) and antibiotics (100 U/mL penicillin and […] streptomycin) at 37 °C in a 5% CO2 incubator.
The cytotoxic effects of compounds on Vero cells were detected by the cytopathic effect (CPE) assay. Briefly, cells (3 × 10^4 cells/well) were seeded into 96-well culture plates and incubated overnight. Then, the medium was removed and different concentrations of compounds were applied in triplicate. After 3 days of incubation, the CC50 was defined as the concentration that inhibited 50% cellular growth in comparison with the untreated controls, as calculated by the Reed–Muench method.

In series [2] the test system is EV-A71 (H strain) VP1 RNA. Briefly: qRT-PCR of VP1 RNA in infected Vero cells. The conditions noted are these: H strain MOI = 0.1, 1 h infection then A3 for 24 h, RT-qPCR. It is filed as cell-based, Enterovirus 71 (EV-A71). On the procedure: (§4) To further confirm the anti-EV-A71 activity, the expression levels of VP1 RNA and protein were determined. Vero cells were infected with the H strain of EV-A71 for 1 h followed by treatment with A3 of various concentrations for another 24 h. […] Meanwhile, the antiviral efficacy of A3 was also tested using viral titer reduction assays.
Vero cells (9 × 10^5cells/well) were plated into 6-well culture plates for incubation for 16 h. The medium was removed and cells were infected with EV-A71 (H, MOI = 0.1). After 1 h, various concentrations of A3 were supplemented and incubated for another 24 h. The total RNA of the infected cells was extracted using the RNeasy Mini kit (QIAGEN) according to the manufacturer’s instructions. […] The RNA expression of EV-A71 VP1 was detected with the sense primer 5′-GATATCCCACATTCGGTGA-3′ and the antisense primer 5′-[…] -3′ targeting a conserved region of the VP1 gene. β-Actin mRNA was detected using the sense primers 5′-TGACGGGGT CACCCACA CTGTGCCCATCTA-3′ and the antisense primer 5′-CTAGAAGCATTTG CGGTGGACG ATG-3′. […] The relative amounts of EV-A71 VP1 mRNA were calculated by the comparative Ct method after normalizing the quantity of β-actin [15].
(§5) Figure 2 Compound A3 inhibited EV-A71 replication in vitro. […] Intracellular viral VP1 protein (A) and RNA (B) were determined by Western blot and qRT-PCR assays, respectively. […]
Background: Real-time PCR tracks product formation cycle by cycle.

The subject of series [3] is EV-A71 strain ShenZhen98 (SZ98). Nature of the series: CPE inhibition assay for anti-EV-A71 in Vero cells, Shenzhen98 strain. It is filed as cell-based, Enterovirus 71 (EV-A71). On the procedure:
as §1, §2, §3

A further series relates to EV-A71. Nature of the series: Viral titer reduction assay. It is filed as cell-based, Enterovirus 71 (EV-A71). The conditions noted are these: cells treated after EV-A71 infection. On the procedure:
as §4
Figure 2 Compound A3 inhibited EV-A71 replication in vitro. Vero cells (9 × 10^5 cells/well) were plated into 6-well culture plates and infected with EV-A71 (multiplicity of infection, MOI = 0.1) for 1 h. The infected cells were then treated with the indicated concentrations of A3 for 24 h. Intracellular viral VP1 protein (A) and RNA (B) were determined by Western blot and qRT-PCR assays, respectively. (C) The inhibition of a viral titer by A3. ** p < 0.01 * p < 0.05.

In series [4] the test system is EV-A71 (H strain) VP1 protein. Briefly: Western blot of viral VP1 protein in infected Vero cells. The conditions noted are these: H strain MOI = 0.1, 1 h infection then A3 for 24 h. It is filed as cell-based, Enterovirus 71 (EV-A71). As to the method: as §4
Vero cells (9 × 10^5 cells/well) were plated into 6-well culture plates for incubation for 16 h. The medium was removed and cells were infected with EV-A71 (H, MOI = 0.1). After 1 h, various concentrations of A3 were supplemented for incubation for another 24 h. The cells were lysed in the M-PER mammalian protein extraction reagent (Thermo, Rockford, IL, USA) containing halt protease inhibitor single-use cocktail (Thermo). The protein concentration was determined by the BCA reagents (Thermo). About 15 μg of proteins was denatured and applied to sodium dodecyl sulfate-polyacrylamide gel electrophoresis (SDS-PAGE). The electrophoresis products were transferred to a polyvinyl idenefluoride (PVDF) film and PVDF membranes were then incubated at room temperature with a specific primary antibody. […]
as §5
A general note: In western blotting, separated proteins are transferred to a membrane and probed.

For a further series, the system named is EV-A71 strain H. Nature of the series: CPE inhibition assay for anti-EV-A71 in Vero cells, H strain. It is filed as cell-based, Enterovirus 71 (EV-A71). As to the method: as §1, §2, §3
The mark [5] stands for this setting: Enterovirus A, EVA71, Vero cells, 100TCID50, 48 h.

The EC50 is the concentration at which the effect is half-maximal. Usually CC50 stands for the concentration giving 50% cytotoxicity.

The structures appear in SMILES notation.

For the molecule `O=C1c2ccccc2CN1c1ccc(Cl)cc1` [Compound A3, 2-(4-chlorophenyl)isoindolin-1-one], in the series with EV-A71 strain BrCr (CC50/EC50), the “BrCr SI” value is on record as 199. Further, the EC50 amounted to 1.29 ± 0.24 µM with EV-A71 strain BrCr (setting [5]), 1.29 ± 0.24 µM in series [3] (setting [5]) and 1.53 ± 0.16 µM in the series with EV-A71 strain H (setting [5]). The 50% cytotoxic concentration (CC50) at 3 days in series [1] worked out at 257 ± 35.3 µM. For the same molecule, the “VP1 RNA expression level” value in series [2] is reported as “significantly reduced VP1 RNA expression level in a dose-dependent way”. The “Shenzhen98 SI” value in series [3] (CC50/EC50) was determined as 199. Also, the viral titers entry in the series on EV-A71 is given as “dose-dependent reduction in viral titers”. The “viral VP1 protein level” value in series [4] is “decreased the levels of viral VP1 protein in a dose-dependent manner”. In the series with EV-A71 strain H (CC50/EC50), the “H SI” value is 168.

For the origin of these results see paper PMC6429200, “Synthesis and Broad Antiviral Activity of Novel 2-aryl-isoindolin-1-ones towards Diverse Enterovirus A71 Clinical Isolates” (Molecules, 2019).
